ChEMBL document CHEMBL1671661, “Inhibition of intracellular growth of Salmonella enterica serovar Typhimurium in tissue culture by antisense peptide-phosphorodiamidate morpholino oligomer” (Antimicrob Agents Chemother, 2009)
In brackets after ≈: the same amount, converted by molar mass. Activity calls are given as the source filed them. The rule behind the calls is not given here.

How the values were obtained:
[1] = tested on: Salmonella typhimurium; assay: Antibacterial activity against 9.0 x 10^7 CFU/ml Salmonella enterica serovar Typhimurium 14028s infected in RAW264.7 mouse macrophages assessed as decrease in intracellular bacterial level at 3 uM measured 42 hrs post infection relative to untreated control; type: functional
[2] = tested on: Salmonella typhimurium; assay: Antibacterial activity against 9.0 x 10^7 CFU/ml Salmonella enterica serovar Typhimurium 14028s infected in RAW264.7 mouse macrophages assessed as decrease in intracellular bacterial level at 3 uM measured 18 hrs post infection; type: functional, organism-based; conditions: Salmonella enterica subsp. enterica serovar Typhimurium
[3] = tested on: Salmonella typhimurium; assay: Antibacterial activity against 9.0 x 10^7 CFU/ml Salmonella enterica serovar Typhimurium 14028s infected in RAW264.7 mouse macrophages assessed as decrease in intracellular bacterial level at 3 uM measured 2 hrs post infection; type: functional
[4] = tested on: Salmonella typhimurium; assay: Antibacterial activity against Salmonella enterica serovar Typhimurium 14028s by CLSI M7-A7 microdilution method; type: functional, Salmonella enterica subsp. enterica serovar Typhimurium
[5] = tested on: Salmonella typhimurium; assay: Antibacterial activity against 9.0 x 10^7 CFU/ml Salmonella enterica serovar Typhimurium 14028s assessed as decrease in growth rate at 2.5 uM by spectrophotometry; type: functional, organism-based; conditions: Salmonella enterica subsp. enterica serovar Typhimurium
[6] = tested on: Salmonella typhimurium; assay: Antibacterial activity against 9.0 x 10^7 CFU/ml Salmonella enterica serovar Typhimurium 14028s assessed as decrease in bacterial viable cell count at 2.5 uM by spectrophotometry; type: functional, organism-based; conditions: Salmonella enterica subsp. enterica serovar Typhimurium
[7] = tested on: Salmonella typhimurium; assay: Antibacterial activity against 9.0 x 10^7 CFU/ml Salmonella enterica serovar Typhimurium 14028s assessed as decrease in growth rate at 50 uM by spectrophotometry; type: functional, organism-based; conditions: Salmonella enterica subsp. enterica serovar Typhimurium
[8] = tested on: Serum; assay: Drug concentration in rat serum administered as single bolus dose; type: ADME, organism-based; conditions: in vivo
[9] = tested on: Salmonella typhimurium; assay: Antibacterial activity against 9.0 x 10^7 CFU/ml Salmonella enterica serovar Typhimurium 14028s assessed as decrease in bacterial viable cell count at 2.5 uM by spectrophotometry relative to untreated control; type: functional, Salmonella enterica subsp. enterica serovar Typhimurium
[10] = Salmonella enterica subsp. enterica serovar Typhimurium

SMILES | Activity [1, 10] | Activity [2] | Activity [3, 10] | MIC [4] | Activity [5] | Activity [6] | Activity [7] | Drug uptake [8] | fold change (FC) [1] | Activity [3] | fold change (FC) [9]
CC(=O)N[C@@H](CCCNC(=N)N)C(=O)NCCCCCC(=O)N[C@@H](CCCNC(=N)N)C(=O)N[C@@H](CCCNC(=N)N)C(=O)NCCCCCC(=O)N[C@@H](CCCNC(=N)N)C(=O)[C@H](CCCNC(=N)N)NC(=O)CCCCCNC(=O)N[C@@H](CCCNC(=N)N)C(=O)N[C@@H](CCCNC(=N)N)C(=O)NCCCCCC(=O)N[C@@H](CCCNC(=N)N)C(=O)NCCCCCC(=O)NCCC(=O)N1C[C@@H](COP(=O)(N2CCNCC2)N2C[C@@H](COP(=O)(N(C)C)N3C[C@@H](COP(=O)(N(C)C)N4C[C@@H](COP(=O)(N5CCNCC5)N5C[C@@H](COP(=O)(N(C)C)N6C[C@@H](COP(=O)(N(C)C)N7C[C@@H](COP(=O)(N(C)C)N8C[C@@H](COP(=O)(N(C)C)N9C[C@@H](COP(=O)(N%10CCNCC%10)N%10C[C@@H](COP(=O)(N(C)C)N%11C[C@@H](CO)O[C@@H](n%12cc(C)c(=O)[nH]c%12=O)C%11)O[C@@H](n%11ccc(N)nc%11=O)C%10)O[C@@H](n%10cc(C)c(=O)[nH]c%10=O)C9)O[C@@H](n9ccc(N)nc9=O)C8)O[C@@H](n8cnc9c(N)ncnc98)C7)O[C@@H](n7cnc8c(=O)[nH]c(N)nc87)C6)O[C@@H](n6cnc7c(N)ncnc76)C5)O[C@@H](n5cc(C)c(=O)[nH]c5=O)C4)O[C@@H](n4cnc5c(=O)[nH]c(N)nc54)C3)O[C@@H](n3cnc4c(=O)[nH]c(N)nc43)C2)O[C@@H](n2cc(C)c(=O)[nH]c2=O)C1 (stereo partly drawn) | inactive | inactive | inactive | > 160 µM | inactive | inactive | – | – | – | – | –
CC1(C)S[C@@H]2[C@H](NC(=O)[C@H](N)c3ccccc3)C(=O)N2[C@H]1C(=O)O [AMPICILLIN] | – | – | – | 20 µM (≈ 6.99 µg/mL) | – | – | – | – | – | – | –
CC(=O)N[C@@H](CCCNC(=N)N)C(=O)NCCCCCC(=O)N[C@@H](CCCNC(=N)N)C(=O)N[C@@H](CCCNC(=N)N)C(=O)NCCCCCC(=O)N[C@@H](CCCNC(=N)N)C(=O)[C@H](CCCNC(=N)N)NC(=O)CCCCCNC(=O)N[C@@H](CCCNC(=N)N)C(=O)N[C@@H](CCCNC(=N)N)C(=O)NCCCCCC(=O)N[C@@H](CCCNC(=N)N)C(=O)NCCCCCC(=O)NCCC(=O)N1C[C@@H](COP(=O)(N(C)C)N2C[C@@H](COP(=O)(N(C)C)N3C[C@@H](COP(=O)(N(C)C)N4C[C@@H](COP(=O)(N(C)C)N5C[C@@H](COP(=O)(N(C)C)N6C[C@@H](COP(=O)(N(C)C)N7C[C@@H](COP(=O)(N(C)C)N8C[C@@H](COP(=O)(N(C)C)N9C[C@@H](COP(=O)(N(C)C)N%10C[C@@H](COP(=O)(N(C)C)N%11C[C@@H](CO)O[C@@H](n%12ccc(N)nc%12=O)C%11)O[C@@H](n%11cc(C)c(=O)[nH]c%11=O)C%10)O[C@@H](n%10cc(C)c(=O)[nH]c%10=O)C9)O[C@@H](n9ccc(N)nc9=O)C8)O[C@@H](n8cnc9c(=O)[nH]c(N)nc98)C7)O[C@@H](n7cnc8c(N)ncnc87)C6)O[C@@H](n6cc(C)c(=O)[nH]c6=O)C5)O[C@@H](n5cnc6c(N)ncnc65)C4)O[C@@H](n4cnc5c(=O)[nH]c(N)nc54)C3)O[C@@H](n3cc(C)c(=O)[nH]c3=O)C2)O[C@@H](n2cnc3c(=O)[nH]c(N)nc32)C1 (stereo partly drawn) | – | – | – | 1.25 µM (≈ 6.92 µg/mL) | inactive | Active | Active | 1 µg/mL | – | – | –
CC(=O)N[C@@H](CCCNC(=N)N)C(=O)NCCCCCC(=O)N[C@@H](CCCNC(=N)N)C(=O)N[C@@H](CCCNC(=N)N)C(=O)NCCCCCC(=O)N[C@@H](CCCNC(=N)N)C(=O)[C@H](CCCNC(=N)N)NC(=O)CCCCCNC(=O)N[C@@H](CCCNC(=N)N)C(=O)N[C@@H](CCCNC(=N)N)C(=O)NCCCCCC(=O)N[C@@H](CCCNC(=N)N)C(=O)NCCCCCC(=O)NCCC(=O)N1C[C@@H](COP(=O)(N(C)C)N2C[C@@H](COP(=O)(N3CCNCC3)N3C[C@@H](COP(=O)(N(C)C)N4C[C@@H](COP(=O)(N(C)C)N5C[C@@H](COP(=O)(N6CCNCC6)N6C[C@@H](COP(=O)(N(C)C)N7C[C@@H](COP(=O)(N(C)C)N8C[C@@H](COP(=O)(N(C)C)N9C[C@@H](COP(=O)(N(C)C)N%10C[C@@H](COP(=O)(N%11CCNCC%11)N%11C[C@@H](CO)O[C@@H](n%12ccc(N)nc%12=O)C%11)O[C@@H](n%11cc(C)c(=O)[nH]c%11=O)C%10)O[C@@H](n%10cc(C)c(=O)[nH]c%10=O)C9)O[C@@H](n9ccc(N)nc9=O)C8)O[C@@H](n8cnc9c(=O)[nH]c(N)nc98)C7)O[C@@H](n7cnc8c(N)ncnc87)C6)O[C@@H](n6cc(C)c(=O)[nH]c6=O)C5)O[C@@H](n5cnc6c(N)ncnc65)C4)O[C@@H](n4cnc5c(=O)[nH]c(N)nc54)C3)O[C@@H](n3cc(C)c(=O)[nH]c3=O)C2)O[C@@H](n2cnc3c(=O)[nH]c(N)nc32)C1 (stereo partly drawn) | – | Active | – | 0.156 µM (≈ 0.883 µg/mL) | Active | Active | – | 1 µg/mL | 2 | 56% | 3
CC(=O)N[C@@H](CCCNC(=N)N)C(=O)NCCCCCC(=O)N[C@@H](CCCNC(=N)N)C(=O)N[C@@H](CCCNC(=N)N)C(=O)NCCCCCC(=O)N[C@@H](CCCNC(=N)N)C(=O)[C@H](CCCNC(=N)N)NC(=O)CCCCCNC(=O)N[C@@H](CCCNC(=N)N)C(=O)N[C@@H](CCCNC(=N)N)C(=O)NCCCCCC(=O)N[C@@H](CCCNC(=N)N)C(=O)NCCCCCC(=O)NCCC(=O)N1C[C@@H](COP(=O)(N(C)C)N2C[C@@H](COP(=O)(N(C)C)N3C[C@@H](COP(=O)(N(C)C)N4C[C@@H](COP(=O)(N(C)C)N5C[C@@H](COP(=O)(N(C)C)N6C[C@@H](COP(=O)(N(C)C)N7C[C@@H](COP(=O)(N(C)C)N8C[C@@H](COP(=O)(N(C)C)N9C[C@@H](COP(=O)(N(C)C)N%10C[C@@H](COP(=O)(N(C)C)N%11C[C@@H](CO)O[C@@H](n%12cc(C)c(=O)[nH]c%12=O)C%11)O[C@@H](n%11ccc(N)nc%11=O)C%10)O[C@@H](n%10cc(C)c(=O)[nH]c%10=O)C9)O[C@@H](n9ccc(N)nc9=O)C8)O[C@@H](n8cnc9c(N)ncnc98)C7)O[C@@H](n7cnc8c(=O)[nH]c(N)nc87)C6)O[C@@H](n6cnc7c(N)ncnc76)C5)O[C@@H](n5cc(C)c(=O)[nH]c5=O)C4)O[C@@H](n4cnc5c(=O)[nH]c(N)nc54)C3)O[C@@H](n3cnc4c(=O)[nH]c(N)nc43)C2)O[C@@H](n2cc(C)c(=O)[nH]c2=O)C1 (stereo partly drawn) | – | – | – | > 160 µM | inactive | inactive | – | – | – | – | –
